Like-named read-outs stand apart in the source and are kept apart here.
Key:
Assay type in all cases: in vivo
[1] = tested on: ryegrass, Italian (Italian ryegrass, Lolium multiflorum); assay: Test A preemergence; details: Lolium multiflorum, pre-emergence, 240 h; for pest or weed control at 125 g/ha: 125 g ai/ha; for pest or weed control at 500 g/ha: 500 g ai/ha
Outline: (§1)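 Treatment is preemergence as a directed soil spray after planting, or postemergence at the one- to two-leaf stage, with test chemical in a non-phytotoxic solvent mixture plus surfactant. Plants stay in the greenhouse about 10 d before visual injury scoring on a 0 to 100 scale versus untreated controls.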

Kochia (Kochia scoparia) = assay: Test A preemergence; details: Bassia scoparia, pre-emergence, 240 h; for pest or weed control at 125 g/ha: 125 g ai/ha; for pest or weed control at 500 g/ha: 500 g ai/ha
Outline: as §1

[2] = tested on: giant foxtail (Setaria faberii); assay: Test A preemergence; details: Setaria faberi, pre-emergence, 240 h; for pest or weed control at 125 g/ha: 125 g ai/ha; for pest or weed control at 500 g/ha: 500 g ai/ha
Outline: as §1

[3] = tested on: barnyardgrass (Echinochloa crus-galli); assay: Test A preemergence; details: Echinochloa crus-galli, pre-emergence, 240 h; for pest or weed control at 125 g/ha: 125 g ai/ha; for pest or weed control at 500 g/ha: 500 g ai/ha
Outline: as §1

[4] = tested on: pigweed (Amaranthus retroflexus); assay: Test A preemergence; details: Amaranthus retroflexus, pre-emergence, 240 h; for pest or weed control at 125 g/ha: 125 g ai/ha; for pest or weed control at 500 g/ha: 500 g ai/ha
[5] = tested on: ragweed (common ragweed, Ambrosia elatior); assay: Test A preemergence; details: Ambrosia artemisiifolia, pre-emergence, 240 h; for pest or weed control at 125 g/ha: 125 g ai/ha; for pest or weed control at 500 g/ha: 500 g ai/ha
Outline: as §1

[6] = tested on: sedge, umbrella (small-flower umbrella sedge, Cyperus difformis); assay: Test B flooded paddy test; details: Cyperus difformis, 250 g ai/ha, Flood, read-out: Sedge, Umbrella plant response rating
Outline: (§2)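 Visual ratings (0 none to 100 complete control) are relative to untreated plants, taken 13–15 d after treatment in a greenhouse. Test material went straight into floodwater standing 3 cm above the soil, kept constant, on plants at the 2-leaf stage.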

[7] = tested on: ducksalad (Heteranthera limosa); assay: Test B flooded paddy test; details: Heteranthera limosa, 250 g ai/ha, Flood, read-out: Ducksalad plant response rating
Outline: as §2

rice (Oryra sativa) = assay: Test B flooded paddy test; details: Oryza sativa, 250 g ai/ha, Flood, read-out: Rice plant response rating
Outline: as §2

[8] = tested on: barnyardgrass (Echinochloa crus-galli); assay: Test B flooded paddy test; details: Echinochloa crus-galli, 250 g ai/ha, Flood, read-out: Barnyardgrass plant response rating
Outline: as §2

corn (Zea mays) = assay: Test A postemergence; details: Zea mays, post-emergence, 240 h
Outline: as §1

[9] = tested on: ryegrass, Italian (Italian ryegrass, Lolium multiflorum); assay: Test A postemergence; details: Lolium multiflorum, post-emergence, 240 h, postemergence; for pest or weed control at 125 g/ha: 125 g ai/ha
Outline: as §1

[10] = tested on: blackgrass (Alopecurus myosuroides); assay: Test A postemergence; details: Alopecurus myosuroides, post-emergence, 240 h; for pest or weed control at 125 g/ha: 125 g ai/ha
Outline: as §1

[11] = tested on: pigweed (Amaranthus retroflexus); assay: Test A postemergence; details: Amaranthus retroflexus, post-emergence, 240 h, postemergence; for pest or weed control at 125 g/ha: 125 g ai/ha
Outline: as §1

[12] = tested on: ragweed (common ragweed, Ambrosia elatior); assay: Test A postemergence; details: Ambrosia artemisiifolia, post-emergence, 240 h, postemergence; for pest or weed control at 125 g/ha: 125 g ai/ha
Outline: as §1

[13] = 0 to 100 scale where 0 is no effect and 100 is complete control
[14] = scale of 0 to 100 where 0 is no effect and 100 is complete control

CC(C)COc1cccc([C@H]2CN(C)C(=O)[C@@H]2C(=O)Nc2cccc(F)c2F)c1 [Compound 1029]
pest or weed control at 125 g/ha ([1]; Preemergence, visual injury rating after approximately 10 d, read-out: Ryegrass, Italian plant response rating (0 to 100 scale, 0 is no effect, 100 is complete control)): 70% | pest or weed control at 500 g/ha ([1]; preemergence, visual injury rating about 10 d after treatment, 0 to 100 scale (0 no effect, 100 complete control), read-out: Ryegrass, Italian plant response rating): 90% | pest or weed control at 125 g/ha (Kochia (Kochia scoparia); Preemergence, visual injury rating after approximately 10 d, read-out: Kochia plant response rating (0 to 100 scale, 0 is no effect, 100 is complete control)): 0% | pest or weed control at 500 g/ha (Kochia (Kochia scoparia); preemergence, visual injury rating about 10 d after treatment, 0 to 100 scale (0 no effect, 100 complete control), read-out: Kochia plant response rating): 90% | pest or weed control at 125 g/ha ([2]; Preemergence, visual injury rating after approximately 10 d, read-out: Foxtail, Giant plant response rating (0 to 100 scale, 0 is no effect, 100 is complete control)): 90% | pest or weed control at 500 g/ha ([2]; preemergence, visual injury rating about 10 d after treatment, 0 to 100 scale (0 no effect, 100 complete control), read-out: Foxtail, Giant plant response rating): 90% | pest or weed control at 125 g/ha ([3]; Preemergence, visual injury rating after approximately 10 d, read-out: Barnyardgrass plant response rating (0 to 100 scale, 0 is no effect, 100 is complete control)): 90% | pest or weed control at 500 g/ha ([3]; preemergence, visual injury rating about 10 d after treatment, 0 to 100 scale (0 no effect, 100 complete control), read-out: Barnyardgrass plant response rating): 90% | pest or weed control at 125 g/ha ([4]; Preemergence, visual injury rating after approximately 10 d, read-out: Pigweed plant response rating (0 to 100 scale, 0 is no effect, 100 is complete control)): 0% | pest or weed control at 500 g/ha ([4]; preemergence, visual injury rating about 10 d after treatment, 0 to 100 scale (0 no effect, 100 complete control), read-out: Pigweed plant response rating): 0% | pest or weed control at 125 g/ha ([5]; Preemergence, visual injury rating after approximately 10 d, read-out: Ragweed plant response rating (0 to 100 scale, 0 is no effect, 100 is complete control)): 0% | pest or weed control at 500 g/ha ([5]; preemergence, visual injury rating about 10 d after treatment, 0 to 100 scale (0 no effect, 100 complete control), read-out: Ragweed plant response rating): 0% | pest or weed control at 250 g/ha [6, 13]: 0% | pest or weed control at 250 g/ha [7, 13]: 85% | pest or weed control at 250 g/ha (rice (Oryra sativa); [13]): 0% | pest or weed control at 250 g/ha [8, 13]: 0% | Corn plant response rating (crop injury, 0 = no effect, 100 = complete kill) at 125 g/ha (corn (Zea mays); 125 g ai/ha, Postemergence, visual injury after approximately 10 d, 0 to 100 scale where 0 is no effect and 100 is complete control): 50% | Corn plant response rating (crop injury, 0 = no effect, 100 = complete kill) at 500 g/ha (corn (Zea mays); 500 g ai/ha, postemergence, visual injury, 0 to 100 scale (0 no effect, 100 complete control), approx. 10 d): 70% | pest or weed control at 125 g/ha ([9]; visual injury on 0 to 100 scale (0 no effect, 100 complete control), approx. 10 d, read-out: Ryegrass, Italian plant response rating): 0% | pest or weed control at 500 g/ha ([9]; 500 g ai/ha, visual injury, 0 to 100 scale (0 no effect, 100 complete control), approx. 10 d, read-out: Plant response rating, Ryegrass, Italian): 40% | pest or weed control at 125 g/ha ([10]; Postemergence, visual injury after approximately 10 d, 0 to 100 scale where 0 is no effect and 100 is complete control, read-out: Plant response rating, Blackgrass): 30% | pest or weed control at 500 g/ha ([10]; 500 g ai/ha, postemergence, visual injury, 0 to 100 scale (0 no effect, 100 complete control), approx. 10 d, read-out: Plant response rating, Blackgrass): 40% | pest or weed control at 125 g/ha ([11]; visual injury on 0 to 100 scale (0 no effect, 100 complete control), approx. 10 d, read-out: Pigweed plant response rating): 0% | pest or weed control at 500 g/ha ([11]; 500 g ai/ha, visual injury, 0 to 100 scale (0 no effect, 100 complete control), approx. 10 d, read-out: Plant response rating, Pigweed): 0% | pest or weed control at 125 g/ha ([12]; visual injury on 0 to 100 scale (0 no effect, 100 complete control), approx. 10 d, read-out: Ragweed plant response rating): 0% | pest or weed control at 500 g/ha ([12]; 500 g ai/ha, visual injury, 0 to 100 scale (0 no effect, 100 complete control), approx. 10 d, read-out: Plant response rating, Ragweed): 0%

Cc1cc(F)ccc1NC(=O)[C@H]1C(=O)NC[C@@H]1c1cccc(C(F)(F)F)c1 [Compound 828]
pest or weed control at 125 g/ha ([1]; preemergence, 0 to 100 scale where 0 is no effect and 100 is complete control, read-out: Ryegrass, Italian plant response rating): 50% | pest or weed control at 500 g/ha ([1]; Preemergence, visual injury vs untreated controls after approximately 10 d, read-out: Ryegrass, Italian plant response rating (0 to 100 scale where 0 is no effect and 100 is complete control)): 70% | pest or weed control at 125 g/ha (Kochia (Kochia scoparia); preemergence, 0 to 100 scale where 0 is no effect and 100 is complete control, read-out: Kochia plant response rating): 40% | pest or weed control at 500 g/ha (Kochia (Kochia scoparia); Preemergence, visual injury vs untreated controls after approximately 10 d, read-out: Kochia plant response rating (0 to 100 scale where 0 is no effect and 100 is complete control)): 40% | pest or weed control at 125 g/ha ([2]; preemergence, 0 to 100 scale where 0 is no effect and 100 is complete control, read-out: Foxtail, Giant plant response rating): 90% | pest or weed control at 500 g/ha ([2]; Preemergence, visual injury vs untreated controls after approximately 10 d, read-out: Foxtail, Giant plant response rating (0 to 100 scale where 0 is no effect and 100 is complete control)): 100% | pest or weed control at 125 g/ha ([3]; preemergence, 0 to 100 scale where 0 is no effect and 100 is complete control, read-out: Barnyardgrass plant response rating): 70% | pest or weed control at 500 g/ha ([3]; Preemergence, visual injury vs untreated controls after approximately 10 d, read-out: Barnyardgrass plant response rating (0 to 100 scale where 0 is no effect and 100 is complete control)): 90% | pest or weed control at 125 g/ha ([4]; preemergence, 0 to 100 scale where 0 is no effect and 100 is complete control, read-out: Pigweed plant response rating): 0% | pest or weed control at 500 g/ha ([4]; Preemergence, visual injury vs untreated controls after approximately 10 d, read-out: Pigweed plant response rating (0 to 100 scale where 0 is no effect and 100 is complete control)): 0% | pest or weed control at 125 g/ha ([5]; preemergence, 0 to 100 scale where 0 is no effect and 100 is complete control, read-out: Ragweed plant response rating): 0% | pest or weed control at 500 g/ha ([5]; Preemergence, visual injury vs untreated controls after approximately 10 d, read-out: Ragweed plant response rating (0 to 100 scale where 0 is no effect and 100 is complete control)): 0% | pest or weed control at 250 g/ha [6, 14]: 0% | pest or weed control at 250 g/ha [7, 14]: 30% | pest or weed control at 250 g/ha (rice (Oryra sativa); [14]): 0% | pest or weed control at 250 g/ha [8, 14]: 0% | plant injury at 125 g/ha (corn (Zea mays); 125 g ai/ha, postemergence, visual injury rating after approximately 10 d, read-out: Corn plant response rating (0 to 100 scale, 0 no effect, 100 complete control)): 40% | pest or weed control at 125 g/ha ([9]; visual injury rating after approximately 10 d, read-out: Ryegrass, Italian plant response rating (0 to 100 scale, 0 no effect, 100 complete control)): 20% | pest or weed control at 125 g/ha ([10]; postemergence, visual injury rating after approximately 10 d, read-out: Blackgrass plant response rating (0 to 100 scale, 0 no effect, 100 complete control)): 50% | pest or weed control at 125 g/ha ([11]; visual injury rating after approximately 10 d, read-out: Pigweed plant response rating (0 to 100 scale, 0 no effect, 100 complete control)): 0% | pest or weed control at 125 g/ha ([12]; visual injury rating after approximately 10 d, read-out: Ragweed plant response rating (0 to 100 scale, 0 no effect, 100 complete control)): 0%

From patent US12077503B2, “Substituted cyclic amides and their use as herbicides” (FMC CORPORATION, priority 2015, dated 2024)
